According to patent US9034921B2, “Diphenylmethane derivatives as SGLT2 inhibitors” (GREEN CROSS CORPORATION, priority 2011, dated 2015):

biological target: human SGLT2 (Homo sapiens (Human), UniProt P31639); test: Inhibitory effects on human SGLT2 activities (14C-AMG uptake, sodium-dependent glucose transport assay); assay type: cell-based; conditions: CHO cells stably expressing hSGLT2, 37° C., 2 h, single determinations
From the text: Test 1: Cloning and Cell Line Construction for Human SGLT2
Human SGLT2 (hSGLT2) gene was amplified by PCR from cDNA-Human Adult Normal Tissue Kidney (Invitrogen). The hSGLT2 sequence was cloned into pcDNA3.1(+) for mammalian expression and stably transfected into chinese hamster ovary (CHO) cells. SGLT2-expressing clones were selected based on resistance to G418 antibiotic (Geneticin) and activity in the ^14C-α-methyl-D-glucopyranoside (^14C-AMG) uptake assay.
Test 2: Inhibitory Effects on Human SGLT2 Activities
For sodium-dependent glucose transport assay, cells expressing hSGLT2 were seeded into a 96-well culture plate at a density of 5×10^4 cells/well in RPMI medium 1640 containing 10% fetal bovine serum. The cells were used 1 day after plating. They were incubated in pretreatment buffer (10 mM HEPES, 5 mM Tris, 140 mM choline chloride, 2 mM KCl, 1 mM CaCl2, and 1 mM MgCl2, pH 7.4) at 37° C. for 10 min. They were then incubated in uptake buffer (10 mM HEPES, 5 mM Tris, 140 mM NaCl, 2 mM KCl, 1 mM CaCl2, 1 mM MgCl2, and 1 mM ^14C-nonlabeled AMG pH 7.4) containing ^14C-labeled AMG (8 μM) and the inventive compound or dimethyl sulfoxide (DMSO) vehicle at 37° C. for 2 h. Cells were washed twice with washing buffer (pretreatment buffer containing 10 mM AMG at room temperature) and then the radioactivity was measured using a liquid scintillation counter. IC50 was determined by nonlinear regression analysis using GraphPad PRISM [Katsuno, K. et al. J. Pharmacol. Exp. Ther. 2007, 320, 323-330; Han, S. et al. Diabetes, 2008, 57, 1723-1729].

human SGLT2, sequence (P31639 whole entry): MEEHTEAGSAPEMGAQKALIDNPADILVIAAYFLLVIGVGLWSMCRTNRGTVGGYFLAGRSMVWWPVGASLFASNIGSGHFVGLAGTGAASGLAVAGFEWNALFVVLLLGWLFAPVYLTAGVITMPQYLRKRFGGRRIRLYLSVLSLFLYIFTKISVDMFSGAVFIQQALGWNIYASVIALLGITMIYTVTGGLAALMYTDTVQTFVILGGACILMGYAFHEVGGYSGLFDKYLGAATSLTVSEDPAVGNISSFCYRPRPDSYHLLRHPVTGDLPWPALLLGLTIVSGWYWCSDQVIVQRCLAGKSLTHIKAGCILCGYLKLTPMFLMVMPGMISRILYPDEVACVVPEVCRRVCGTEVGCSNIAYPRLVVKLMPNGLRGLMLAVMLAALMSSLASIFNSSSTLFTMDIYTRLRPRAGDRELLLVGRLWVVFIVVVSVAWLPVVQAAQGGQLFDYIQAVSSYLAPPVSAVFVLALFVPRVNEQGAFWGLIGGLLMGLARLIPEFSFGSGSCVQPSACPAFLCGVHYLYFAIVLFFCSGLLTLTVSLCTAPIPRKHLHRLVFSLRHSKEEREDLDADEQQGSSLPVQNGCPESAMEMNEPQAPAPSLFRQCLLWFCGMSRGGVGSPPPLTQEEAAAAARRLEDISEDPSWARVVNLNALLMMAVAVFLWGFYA

In order of rising IC50:
1. COc1cc(Cl)c(Cc2ccc3c(c2)OCCO3)cc1[C@@H]1O[C@H](SC)[C@@H](O)[C@H](O)[C@H]1O [Example E095, (2S,3R,4R,5S,6R)-2-(4-Chloro-5-((2,3-dihydrobenzo[b][1,4]dioxin-6-yl)methyl)-2-methoxyphenyl)-6-(methylthio)-tetrahydro-2H-pyran-3,4,5-triol]  0.628 nM
2. CS[C@H]1O[C@@H](c2ccc(Cl)c(Cc3ccc4c(c3)OCCO4)c2)[C@H](O)[C@@H](O)[C@@H]1O [Example E091, (2S,3R,4R,5S,6R)-2-(4-Chloro-3-((2,3-dihydrobenzo[b][1,4]dioxin-6-yl)methyl)phenyl)-6-(methylthio)tetrahydro-2H-pyran-3,4,5-triol]  0.629 nM
3. OC[C@H]1O[C@@H](c2ccc(Cl)c(Cc3ccc4c(c3)OC=CO4)c2)[C@H](O)[C@@H](O)[C@@H]1O [Example E069]  0.788 nM
4. OC[C@H]1O[C@@H](c2ccc(Cl)c(Cc3ccc4c(c3)SCCO4)c2)[C@H](O)[C@@H](O)[C@@H]1O [Example E072, (2S,3R,4R,5S,6R)-2-(4-Chloro-3-((2,3-dihydrobenzo[b][1,4]oxathiin-6-yl)methyl)phenyl)-6-(hydroxymethyl)-tetrahydro-2H-pyran-3,4,5-triol]  1.75 nM
5. Cc1c(Br)cc([C@@H]2O[C@H](CO)[C@@H](O)[C@H](O)[C@H]2O)cc1Cc1ccc2c(c1)OCCO2 [Example E085, (2S,3R,4R,5S,6R)-2-(3-Bromo-5-((2,3-dihydrobenzo[b][1,4]dioxin-6-yl)methyl)-4-methylphenyl)-6-(hydroxymethyl)-tetrahydro-2H-pyran-3,4,5-triol]  1.82 nM
6. CCOc1ccc(Cc2cc([C@@H]3O[C@H](CO)[C@@H](O)[C@H](O)[C@H]3O)cc(-c3ccsc3)c2C)cc1 [Example E089, (2S,3R,4R,5S,6R)-2-(3-(4-Ethoxybenzyl)-4-methyl-5-(thiophen-3-yl)phenyl)-6-(hydroxymethyl)-tetrahydro-2H-pyran-3,4,5-triol]  2.55 nM
7. OC[C@H]1O[C@@H](c2ccc(Cl)c(Cc3ccc4c(c3)SCO4)c2)[C@H](O)[C@@H](O)[C@@H]1O [Example E066, (2S,3R,4R,5S,6R)-2-(3-(Benzo[d][1,3]oxathiol-5-ylmethyl)-4-chlorophenyl)-6-(hydroxymethyl)-tetrahydro-2H-pyran-3,4,5-triol]  3.67 nM
8. CCOc1ccc(Cc2cc([C@@H]3O[C@H](CO)[C@@H](O)[C@H](O)[C@H]3O)cc(-c3cccs3)c2C)cc1 [Example E090, (2S,3R,4R,5S,6R)-2-(3-(4-Ethoxybenzyl)-4-methyl-5-(thiophen-2-yl)phenyl)-6-(hydroxymethyl)-tetrahydro-2H-pyran-3,4,5-triol]  3.73 nM
9. CCOc1ccc(Cc2cc([C@@H]3O[C@H](CO)[C@@H](O)[C@H](O)[C@H]3O)cc(-c3ccccc3)c2C)cc1 [Example E077]  3.84 nM
10. Cc1c(Cc2ccc3c(c2)OCCO3)cc([C@@H]2O[C@H](CO)[C@@H](O)[C@H](O)[C@H]2O)cc1-c1ccccc1 [Example E084, (2S,3R,4R,5S,6R)-2-(5-((2,3-Dihydrobenzo[b][1,4]dioxin-6-yl)methyl)-6-methylbiphenyl-3-yl)-6-(hydroxymethyl)-tetrahydro-2H-pyran-3,4,5-triol]  5.3 nM
11. CC1(C)COc2cc(Cc3cc([C@@H]4O[C@H](CO)[C@@H](O)[C@H](O)[C@H]4O)ccc3Cl)ccc2O1 [Example E064, (2S,3R,4R,5S,6R)-2-(4-Chloro-3-((2,2-dimethyl-2,3-dihydrobenzo[b][1,4]dioxin-6-yl)methyl)phenyl)-6-(hydroxymethyl)-tetrahydro-2H-pyran-3,4,5-triol]  5.78 nM
12. CC1Cc2cc(Cc3cc([C@@H]4O[C@H](CO)[C@@H](O)[C@H](O)[C@H]4O)ccc3Cl)ccc2O1 (stereo partly drawn) [Example E065, (2S,3R,4R,5S,6R)-2-(4-Chloro-3-((2-methyl-2,3-dihydrobenzofuran-5-yl)methyl)phenyl)-6-(hydroxymethyl)-tetrahydro-2H-pyran-3,4,5-triol]  7.62 nM
13. CO[C@H]1O[C@@H](c2ccc(Cl)c(Cc3ccc4c(c3)OCCO4)c2)[C@H](O)[C@@H](O)[C@@H]1O [Example E092, (2S,3R,4R,5S,6S)-2-(4-Chloro-3-((2,3-dihydrobenzo[b][1,4]dioxin-6-yl)methyl)phenyl)-6-methoxy-tetrahydro-2H-pyran-3,4,5-triol]  8.65 nM
14. OC[C@H]1O[C@@H](c2ccc(Cl)c(Cc3ccc4c(c3)COCO4)c2)[C@H](O)[C@@H](O)[C@@H]1O [Example E068, (2S,3R,4R,5S,6R)-2-(3-((4H-Benzo[d][1,3]dioxin-6-yl)methyl)-4-chlorophenyl)-6-(hydroxymethyl)-tetrahydro-2H-pyran-3,4,5-triol]  9.47 nM
15. CCc1ccc(Cc2cc([C@@H]3O[C@H](CO)[C@@H](O)[C@H](O)[C@H]3O)cc(-c3ccccc3)c2C)cc1 [Example E076]  9.63 nM
16. CCOc1ccc(Cc2cc([C@@H]3O[C@H](CO)[C@@H](O)[C@H](O)[C@H]3O)cc(-c3ccccc3Cl)c2C)cc1 [Example E086, (2S,3R,4R,5S,6R)-2-(6′-Chloro-5-(4-ethoxybenzyl)-6-methylbiphenyl-3-yl)-6-(hydroxymethyl)-tetrahydro-2H-pyran-3,4,5-triol]  15.4 nM
17. COC1O[C@@H](c2ccc(Cl)c(Cc3ccc4c(c3)OCCO4)c2)[C@H](O)[C@@H](O)[C@@H]1O (stereo partly drawn) [Example E093, (2S,3R,4R,5S)-2-(4-Chloro-3-((2,3-dihydrobenzo[b][1,4]dioxin-6-yl)methyl)phenyl)-6-methoxytetrahydro-2H-pyran-3,4,5-triol]  16.8 nM
18. COc1cc(Cl)c(Cc2ccc3c(c2)OCCO3)cc1[C@@H]1O[C@H](OC)[C@@H](O)[C@H](O)[C@H]1O [Example E096, (2S,3R,4R,5S,6S)-2-(4-Chloro-5-((2,3-dihydrobenzo[b][1,4]dioxin-6-yl)methyl)-2-methoxyphenyl)-6-methoxy-tetrahydro-2H-pyran-3,4,5-triol]  18.5 nM
19. CCOc1ccc(Cc2cc([C@@H]3O[C@H](CO)[C@@H](O)[C@H](O)[C@H]3O)cc(-c3cccc(C#N)c3)c2C)cc1 [Example E087, 3′-(4-Ethoxybenzyl)-2′-methyl-5′-((2S,3R,4R,5S,6R)-3,4,5-trihydroxy-6-(hydroxymethyl)-tetrahydro-2H-pyran-2-yl)biphenyl-3-carbonitrile]  38.9 nM
20. CO[C@@H]1O[C@@H](c2ccc(Cl)c(Cc3ccc4c(c3)OCCO4)c2)[C@H](O)[C@@H](O)[C@@H]1O [Example E094, (2S,3R,4R,5S,6R)-2-(4-Chloro-3-((2,3-dihydrobenzo[b][1,4]dioxin-6-yl)methyl)phenyl)-6-methoxy-tetrahydro-2H-pyran-3,4,5-triol]  53.9 nM
21. O=S1(=O)CCOc2ccc(Cc3cc([C@@H]4O[C@H](CO)[C@@H](O)[C@H](O)[C@H]4O)ccc3Cl)cc21 [Example E073, (2S,3R,4R,5S,6R)-2-(4-Chloro-3-((1,1-dioxo-2,3-dihydrobenzo[b][1,4]oxathiin-6-yl)methyl)phenyl)-6-(hydroxymethyl)-tetrahydro-2H-pyran-3,4,5-triol]  78.5 nM
22. CCOc1ccc(Cc2cc([C@@H]3O[C@H](CO)[C@@H](O)[C@H](O)[C@H]3O)cc(-c3ccc(F)cc3)c2C)cc1 [Example E078]  93.3 nM
